In ChEMBL document CHEMBL1201862, “PubChem BioAssay data set” (2004):
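The compound was tested at five concentrations on cells cultured in 96-well plates, with a 48-hour exposure period. GI50 is the concentration that inhibits growth by half.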 Active and inactive are the calls of the source. Cut-off read from the data, not from the text of the source: active = GI50 up to about 1.1 µM and inactive = higher.

Legend:
Test in all cases: DTP human tumour cell line panel, 48 h
[1] = tested on: A549
[2] = tested on: CCRF-CEM
[3] = tested on: HCT-116
[4] = tested on: HCT-15
[5] = tested on: HL-60
[6] = tested on: HOP-92
[7] = tested on: M14
[8] = tested on: MOLT-4
[9] = tested on: NCI-H226
[10] = tested on: NCI/ADR-RES
[11] = tested on: OVCAR-3
[12] = tested on: OVCAR-5
[13] = tested on: SF-295
[14] = tested on: SK-OV-3
[15] = tested on: SNB-19
[16] = tested on: SNB-75
[17] = tested on: UACC-62
[18] = tested on: UO-31
[19] = tested on: LOX IMVI
[20] = tested on: Malme-3M

Compound | GI50 [1] | GI50 [2] | GI50 [3] | GI50 [4] | GI50 [5] | GI50 [6] | GI50 [7] | GI50 [8] | GI50 [9] | GI50 [10] | GI50 [11] | GI50 [12] | GI50 [13] | GI50 [14] | GI50 [15] | GI50 [16] | GI50 [17] | GI50 [18] | GI50 [19] | GI50 [20]
ClCCCc1ccccc1C1=NCCc2ccccc21 | 54.2 µM (inactive) | > 100 µM (inactive) | 42.4 µM (inactive) | > 100 µM | 23.5 µM (inactive) | 81.1 µM (inactive) | > 100 µM (inactive) | 82.4 µM (inactive) | 55.1 µM (inactive) | > 100 µM (inactive) | > 100 µM (inactive) | > 100 µM (inactive) | > 100 µM (inactive) | > 100 µM (inactive) | 36.8 µM (inactive) | 17.5 µM (inactive) | 56.2 µM (inactive) | > 100 µM (inactive) | – | –
CC(=O)NCCSC(=O)c1ccccc1 | 0.155 µM (active) | < 0.0153 µM (active) | 0.0488 µM (active) | 0.156 µM | – | 0.918 µM (active) | 0.0923 µM (active) | < 0.0176 µM (active) | 0.116 µM (active) | 0.163 µM (active) | 0.243 µM (active) | 0.141 µM (active) | 0.147 µM (active) | 1.13 µM (inactive) | 0.916 µM (active) | 0.741 µM (active) | 0.013 µM (active) | 0.264 µM (active) | 0.124 µM (active) | 0.119 µM (active)
CN(C)Cc1cc(C(C)(C)C)cc(CN(C)C)c1O | 76.6 µM (inactive) | 21.4 µM (inactive) | 35.6 µM (inactive) | 30.4 µM | – | > 100 µM (inactive) | > 100 µM (inactive) | 49.2 µM (inactive) | – | 34.2 µM (inactive) | 28.8 µM (inactive) | 57.3 µM (inactive) | 44.6 µM (inactive) | > 100 µM (inactive) | > 100 µM (inactive) | > 100 µM (inactive) | > 100 µM (inactive) | 21.3 µM (inactive) | 95.9 µM (inactive) | > 100 µM (inactive)
Nc1nc(N)c2nc(CNc3ccc(C(=O)NC(CCNC(=O)c4ccccc4C(=O)O)C(=O)O)cc3)cnc2n1 (centres undefined) | 0.01 µM (active) | 0.01 µM (active) | 0.00502 µM (active) | 0.01 µM | – | 0.0698 µM (active) | 0.01 µM (active) | < 0.0154 µM (active) | > 100 µM (inactive) | < 0.0173 µM (active) | 31.6 µM (inactive) | > 100 µM (inactive) | 0.0718 µM (active) | > 100 µM (inactive) | < 0.0434 µM (active) | – | < 0.0126 µM (active) | 0.00802 µM (active) | 0.01 µM (active) | > 36.2 µM (inactive)
CCN(CC)/N=N/c1c(C(N)=O)n[nH]c1C | 69 µM (inactive) | 18.3 µM (inactive) | > 100 µM (inactive) | 63.7 µM | – | 11.3 µM (inactive) | > 100 µM (inactive) | – | 48.9 µM (inactive) | 48.5 µM (inactive) | > 100 µM (inactive) | – | 38.1 µM (inactive) | 22.1 µM (inactive) | 77.1 µM (inactive) | 23.2 µM (inactive) | 35 µM (inactive) | 20.7 µM (inactive) | 28.6 µM (inactive) | 64.3 µM (inactive)
COc1ccc(/C(Br)=C2\OC(=O)c3ccccc32)cc1 | > 10 µM (inactive) | > 10 µM (inactive) | > 10 µM (inactive) | > 10 µM | > 10 µM (inactive) | > 10 µM (inactive) | > 10 µM (inactive) | > 10 µM (inactive) | > 10 µM (inactive) | > 10 µM (inactive) | > 10 µM (inactive) | > 10 µM (inactive) | > 10 µM (inactive) | > 10 µM (inactive) | > 10 µM (inactive) | > 10 µM (inactive) | > 10 µM (inactive) | > 10 µM (inactive) | > 10 µM (inactive) | –
O=C(N/N=C\c1ccc([N+](=O)[O-])cc1)Nc1ccc2ccccc2c1 | 43.8 µM (inactive) | 35.3 µM (inactive) | 24.3 µM (inactive) | 38.6 µM | – | 28.2 µM (inactive) | 32.4 µM (inactive) | > 100 µM (inactive) | 32.6 µM (inactive) | 50.6 µM (inactive) | > 100 µM (inactive) | 34.8 µM (inactive) | 49.4 µM (inactive) | 31.4 µM (inactive) | 52.1 µM (inactive) | 27.2 µM (inactive) | 28.1 µM (inactive) | 82.4 µM (inactive) | 69.7 µM (inactive) | 22.5 µM (inactive)
C=CCOC(=O)C[C@H](NC(=O)[C@H](Cc1ccc(O)cc1)NCC(F)(F)F)C(=O)OCC=C | > 100 µM (inactive) | – | > 100 µM (inactive) | > 100 µM | – | > 100 µM (inactive) | 41.7 µM (inactive) | 25.1 µM (inactive) | > 100 µM (inactive) | > 100 µM (inactive) | – | > 100 µM (inactive) | > 100 µM (inactive) | > 100 µM (inactive) | > 100 µM (inactive) | 31.6 µM (inactive) | 40.7 µM (inactive) | > 100 µM (inactive) | 65.5 µM (inactive) | 22.6 µM (inactive)
Cc1c(C(=O)O)n2cnnc2c2ccccc12 | > 100 µM (inactive) | > 100 µM (inactive) | > 100 µM (inactive) | > 100 µM | > 100 µM (inactive) | > 100 µM (inactive) | > 100 µM (inactive) | > 100 µM (inactive) | > 100 µM (inactive) | > 100 µM (inactive) | > 100 µM (inactive) | > 100 µM (inactive) | > 100 µM (inactive) | > 100 µM (inactive) | > 100 µM (inactive) | – | > 100 µM (inactive) | > 100 µM (inactive) | > 100 µM (inactive) | –
CCOC(CCCN1CCC2(CC1)C(=O)N(C)CN2c1ccccc1)(OCC)c1ccc(F)cc1 | 8.65 µM (inactive) | 4.42 µM (inactive) | 3.82 µM (inactive) | 10.1 µM | 13 µM (inactive) | – | 10.7 µM (inactive) | 7.11 µM (inactive) | 18.3 µM (inactive) | 13.7 µM (inactive) | 13.6 µM (inactive) | 7.89 µM (inactive) | 12.7 µM (inactive) | 21.8 µM (inactive) | 10.2 µM (inactive) | 19.4 µM (inactive) | 16 µM (inactive) | 7.01 µM (inactive) | 16.1 µM (inactive) | 16.2 µM (inactive)
O=C1CCCC2=C1CC1=C(CCCC1=O)N2c1ccccc1 | > 100 µM (inactive) | > 100 µM (inactive) | – | > 100 µM | > 100 µM (inactive) | > 100 µM (inactive) | > 100 µM (inactive) | > 100 µM (inactive) | > 100 µM (inactive) | > 100 µM (inactive) | > 100 µM (inactive) | > 100 µM (inactive) | – | > 100 µM (inactive) | > 100 µM (inactive) | > 100 µM (inactive) | > 100 µM (inactive) | > 100 µM (inactive) | > 100 µM (inactive) | –
C/C=C\C(CC(=O)O)CN1CCC2=C(C1)C(S(=O)(=O)C(F)(F)F)c1ccccc12 (centres undefined) | > 100 µM (inactive) | > 10 µM (inactive) | > 100 µM (inactive) | > 100 µM | – | > 100 µM (inactive) | > 100 µM (inactive) | > 100 µM (inactive) | – | > 100 µM (inactive) | > 100 µM (inactive) | > 100 µM (inactive) | > 100 µM (inactive) | > 100 µM (inactive) | > 100 µM (inactive) | > 100 µM (inactive) | > 100 µM (inactive) | > 100 µM (inactive) | – | > 100 µM (inactive)
C=CCN(Cc1ccncc1)C(=O)C(O)(c1ccccc1)c1ccccc1 | 79.3 µM (inactive) | 35.8 µM (inactive) | 48.2 µM (inactive) | 65.9 µM | 35.3 µM (inactive) | – | 56 µM (inactive) | 27.8 µM (inactive) | > 100 µM (inactive) | 17.7 µM (inactive) | 50.6 µM (inactive) | > 100 µM (inactive) | 57.3 µM (inactive) | > 100 µM (inactive) | 95.7 µM (inactive) | 85.9 µM (inactive) | 39.1 µM (inactive) | 17.5 µM (inactive) | 97.9 µM (inactive) | 51.9 µM (inactive)
CNC(=O)N1CN(c2ccccc2)C2(CCN(Cc3ccccc3)CC2)C1=O | > 100 µM (inactive) | 53.5 µM (inactive) | 24.9 µM (inactive) | 15 µM | 43.1 µM (inactive) | – | > 100 µM (inactive) | 14.2 µM (inactive) | > 100 µM (inactive) | 12.2 µM (inactive) | > 100 µM (inactive) | 1.05 µM (active) | > 100 µM (inactive) | 4.18 µM (inactive) | > 100 µM (inactive) | > 100 µM (inactive) | 69.8 µM (inactive) | 11.3 µM (inactive) | 50.5 µM (inactive) | 70.1 µM (inactive)
C/C1=C\[C@H](C)C[C@H](C)OC(=O)C[C@H](c2ccc(O)cc2)NC(=O)[C@H](Cc2ccc(O)c(I)c2)N(C)C(=O)[C@H](C)NC(=O)[C@@H](C)C1 | 0.0102 µM (active) | 0.00497 µM (active) | 0.016 µM (active) | 0.234 µM | – | 0.0365 µM (active) | 0.0405 µM (active) | 0.258 µM (active) | 0.0153 µM (active) | 1.11 µM (active) | 0.0203 µM (active) | 0.131 µM (active) | 0.0778 µM (active) | 0.054 µM (active) | 0.0143 µM (active) | 0.0354 µM (active) | 0.0428 µM (active) | 0.0535 µM (active) | 0.00411 µM (active) | 0.0118 µM (active)
Nn1c(CCCCCCCCc2nnc(COc3ccc(Cl)cc3Cl)n2N)nnc1COc1ccc(Cl)cc1Cl | 32.7 µM (inactive) | – | 16.7 µM (inactive) | 37.7 µM | – | 28.4 µM (inactive) | 49.3 µM (inactive) | 20 µM (inactive) | 63.5 µM (inactive) | 31.1 µM (inactive) | – | 35.6 µM (inactive) | > 10 µM (inactive) | > 10 µM (inactive) | 30.9 µM (inactive) | > 10 µM (inactive) | 38.6 µM (inactive) | 47.1 µM (inactive) | – | 6.71 µM (inactive)
